This note sets out measurements from patent US20060110481A1, “COMPOSITIONS CONTAINING VITEX AGNUS-CASTUS BERRY OIL FOR COSMECEUTICAL APPLICATIONS AND METHOD OF ISOLATION OF THE ACTIVE COMPONENT” (SAMI LABS LIMITED, priority 2004, published 2006).

What all share (assay type): cell-based
The test system of assay [1] is E. coli. Put plainly: Disc diffusion antimicrobial study against E. coli. The method, then: (§1) Procedure: Medium used for this study was reinforced clostridial Agar (RCA). The medium which was prepared and sterilized in 30 ml vials was poured into the plates inside the chamber and allowed to solidity. The culture was inoculated [0.3 ml/plate] into the plates and spread. After 30 minutes, antibacterial sterile discs [6 mm] were dispensed (2/plate), and 2.5, 5.0, 7.5 and 10 μl of the prepared samples and controls were dispensed onto the discs. The plates were incubated inside the anaerobic chamber at 37° C. for 48 hours duration.
(§2) Antimicrobial studies of Vitex oil against general pathogenic aerobic bacteria such as E. coli and S. aureus were also carried out. E. coli was grown in lactose broth and S. aureus in nutrient broth. The method used was the same as it was followed for P. acnes. Clindac A (Clindamycin phosphate gel 1% w/w) was used as positive control. The clearence zone formed around the discs were measured and expressed in mm.

Assay [2] concerns S. aureus. Nature of the assay: Disc diffusion antimicrobial study against S. aureus. On the procedure: as §1, §2
On the technique in general: Agar diffusion results depend on both activity and mobility in agar.

Assay [3] deals with Propionibacterium acnes ATCC 11827. Nature of the assay: Direct bioautography on thin layer chromatograms. The settings on record: TLC bioautography, P. acnes. The method, then:
The antibacterial effects of aqueous, methanolic Vitex agnus castus fruit extract and various extract fractions of different polarities were evaluated by bioautography technique. […] Further fractionation of oil has been done by Silica gel chromatography. Silica gel was been loaded more than half quantity of oil and fraction was collected from mobile phase, hexane, chloroform, 50% chloroform, chloroform, 10% methanol, 50% Methanol and Methanol alone. Active fraction was identified by bioautography technique.
Direct bioautography is the technique used to localize antibacterial activity on a chromatogram. (Lund et al. 1975)
In the present study, the separated fractions of Vitex oil were subjected to Thin Layer Chromatography on silica gel. The solvent system used was hexane: chloroform in 7:3 proportion [FIG. 1]. These chromatograms were dried in the oven at 60° C. for 1 hour to eliminate the traces of solvents. This can be visualized either by spraying the thin layer chromatogram with 5% methanolic sulphuric acid followed by heat drying or under UV light. The plates were taken to the anaerobic chamber where the bioautography experiment was carried out. The medium used was reinforced clostridial agar medium. […]
After incubation, 1-1.2 ml of tetrazolium salt solution [2% concentration] was sprayed as a coloring reagent on the plates. […] The diameter of the zones were measured and expressed in mm.

The structures appear in SMILES notation.

Consider `COc1ccc(-c2oc3cc(OC)c(OC)c(O)c3c(=O)c2OC)cc1OC` [Artemetin], for which the MIC in assay [1] (E. coli) and in assay [2] (S. aureus) was 1.0% throughout. Also, the zone of inhibition (as a rule, the size of the clear area around the sample on an inoculated plate) at 0.5 % strength in assay [1] (Escherichia coli, concentration 0.5 % w/v) amounted to 0 mm; in assay [2] (Staphylococcus aureus, concentration 0.5 % w/v), 0 mm. Moreover, the zone of inhibition at 1 % strength was found to be 9 mm in assay [1] (Escherichia coli, concentration 1 % w/v) and 8 mm in assay [2] (Staphylococcus aureus, concentration 1 % w/v). Besides, the zone of inhibition at 5 % strength is 12 mm in assay [1] (Escherichia coli, concentration 5 % w/v) and 10 mm in assay [2] (Staphylococcus aureus, concentration 5 % w/v). The “Antibacterial activity by bioautography (in words)” value in assay [3] is on record as “Clearance zone was exhibited”.
